According to patent US20090197897A1, “Novel Oxadiazole Derivatives and Their Use as Positive Allosteric Modulators of Metabotropic Glutamate Receptors” (Addex Pharma SA, priority 2005, published 2009):

Legend:
[1] = tested on: amphetamine-induced locomotor activation in mice; experiment: Amphetamine model of schizophrenia (amphetamine-induced locomotor activity); assay type: in vivo; details: 30 & 50 mg/kg ip, 30 min before amphetamine 3.0 mg/kg s.c., 60 min
Description: Amphetamine-induced increases in locomotor ambulation are well known and are widely used as a model of the positive symptoms of schizophrenia. This model is based on evidence that amphetamine increases motor behaviors and can induce a psychotic state in humans (Yui et al. (2000) Ann NY Acad Sci 914:1-12). Further, it is well known that amphetamine-induced increases in locomotor activity are blocked by antipsychotics drugs that are effective in the treatment of schizophrenia (Arnt (1995) Eur J Pharmacol 283:55-62). […]
Assessment of locomotor (ambulatory) activity: The effects of compounds on amphetamine-induced locomotor activation in mice were tested. […] Locomotor activity (ambulations) was monitored by a videotracking system (VideoTrack, Viewpoint, Champagne au Mont d'Or, France) that recorded the ambulatory movements of mice. […] Mice were placed into the locomotor boxes immediately after the amphetamine injection and their locomotor activity, defined as the distance traveled in centimeters (cm), was measured for 60 minutes. […]
Statistical analyses: Statistical analyses were performed using GraphPad PRISM statistical software (GraphPad, San Diego, Calif., USA). Data were analyzed using one-way analysis of variance (ANOVA) followed by post-hoc Bonferroni-corrected multiple comparisons, where appropriate. […]

[2] = biological target: T1, rat mGluR5 (Rattus norvegicus, UniProt P31424); experiment: mGluR5 assay on HEK-expressing rat mGluR5 (fluorescent cell based Ca2+ mobilization assay); details: for EC50: HEK-293 cells stably expressing rat mGluR5, no co-addition of glutamate, mean of at least three independent experiments in duplicate, read-out: Ca++ Flux (mean EC50); for activation of rat mGluR5 receptors in HEK-rat mGluR5 cell line: without co-addition of glutamate or mGluR5 agonist
T1 construct: expressed in transfected cells
T1 sequence (P31424 21-1171 isoform P31424-2 limits assumed): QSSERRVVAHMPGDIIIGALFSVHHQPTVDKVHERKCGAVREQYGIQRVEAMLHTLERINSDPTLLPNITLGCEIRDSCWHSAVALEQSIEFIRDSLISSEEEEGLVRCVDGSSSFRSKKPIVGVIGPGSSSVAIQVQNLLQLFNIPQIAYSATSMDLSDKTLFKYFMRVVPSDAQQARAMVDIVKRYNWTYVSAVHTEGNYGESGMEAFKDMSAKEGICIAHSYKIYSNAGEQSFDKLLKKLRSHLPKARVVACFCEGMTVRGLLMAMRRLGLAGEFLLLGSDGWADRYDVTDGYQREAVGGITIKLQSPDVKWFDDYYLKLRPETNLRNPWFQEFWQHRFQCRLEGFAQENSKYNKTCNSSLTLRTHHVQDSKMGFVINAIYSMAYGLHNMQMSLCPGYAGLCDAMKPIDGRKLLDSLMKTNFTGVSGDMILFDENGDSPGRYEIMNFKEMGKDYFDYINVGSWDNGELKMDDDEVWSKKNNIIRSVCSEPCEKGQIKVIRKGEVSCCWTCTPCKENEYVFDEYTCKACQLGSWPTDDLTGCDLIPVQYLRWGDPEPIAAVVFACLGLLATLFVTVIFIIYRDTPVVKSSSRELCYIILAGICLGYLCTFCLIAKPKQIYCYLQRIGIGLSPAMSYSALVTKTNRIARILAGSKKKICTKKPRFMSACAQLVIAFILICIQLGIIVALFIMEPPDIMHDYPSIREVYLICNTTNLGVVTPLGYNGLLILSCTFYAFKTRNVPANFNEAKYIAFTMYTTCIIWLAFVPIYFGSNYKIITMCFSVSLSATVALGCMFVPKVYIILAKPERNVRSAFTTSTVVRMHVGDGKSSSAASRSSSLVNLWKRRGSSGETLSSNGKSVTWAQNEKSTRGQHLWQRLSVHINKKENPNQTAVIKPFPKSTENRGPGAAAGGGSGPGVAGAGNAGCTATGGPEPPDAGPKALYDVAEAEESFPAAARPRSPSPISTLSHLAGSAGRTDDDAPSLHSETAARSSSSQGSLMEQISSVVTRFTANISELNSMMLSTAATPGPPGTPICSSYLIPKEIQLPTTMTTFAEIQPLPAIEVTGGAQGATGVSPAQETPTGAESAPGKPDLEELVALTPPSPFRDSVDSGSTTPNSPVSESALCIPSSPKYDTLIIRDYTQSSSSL
Description: mGluR5 Assay on HEK-Expressing Rat mGluR5
Positive functional expression of HEK-293 cells stably expressing rat mGluR5 receptor was determined by measuring intracellular Ca^2+ changes using a Fluorometric Imaging Plate Reader (FLIPR, Molecular Devices, Sunnyvale, Calif.) in response to glutamate or selective known mGluR5 agonists and antagonists. Rat mGluR5 RT-PCR products in HEK-293 cells were sequenced and found 100% identical to rat mGluR5 Genbank reference sequence (NM_017012). HEK-293 cells expressing rmGluR5 were maintained in media containing DMEM, dialyzed Fetal Bovine Serum (10%), Glutamax™ (2 mM), Penicillin (100 units/ml), Streptomycin (100 μg/ml), Geneticin (100 μg/ml) and Hygromycin-B (40 μg/ml) at 37° C./5% CO2.
After one day of incubation, cells were washed with assay buffer containing: 142 mM NaCl, 6 mM KCl, 1 mM […], 1 mM CaCl2, 20 mM HEPES, 1 g/L glucose, 0.125 mM sulfinpyrazone, pH 7.4. After 60 min of loading with 4 uM Fluo-4 (TefLabs, Austin, Tex.), the cells were washed three times with 50 μl of PBS Buffer and resuspended in 45 μl of assay Buffer. The plates were then transferred to a Fluorometric Imaging Plate Reader (FLIPR, Molecular Devices, Sunnyvale, Calif.) for the assessment of intracellular calcium flux. After monitoring the baseline fluorescence for 10 seconds, increasing concentrations of representative compound (from 0.01 to 60 μM) of the present invention diluted in Assay Buffer (15 μl of 4× dilutions) was added to the cell. The final DMSO concentration in the assay was 0.3%. In each experiment, fluorescence was then monitored as a function of time for 3 minutes and the data analyzed using Microsoft Excel and GraphPad Prism. Each data point was also measured two times.
Under these experimental conditions, this HEK-rat mGluR5 cell line is able to directly detect positive allosteric modulators without the need of co-addition of glutamate or mGluR5 agonist.
The concentration-response curves of representative compounds of the present invention were generated using the Prism GraphPad software (Graph Pad Inc, San Diego, USA). The curves were fitted to a four-parameter logistic equation:
(Y=Bottom+(Top−Bottom)/(1+10̂((Log EC50−X)*Hill Slope)
allowing determination of EC50 values.
The Table 1 below represents the mean EC50 obtained from at least three independent experiments of selected molecules performed in duplicate.

[3] = biological target: T2, mGluR5 (Rattus norvegicus, UniProt P31424); details: Liu et al 2006, Zhang et al 2005; cited from earlier work
T2 construct: positive allosteric modulators of mGluR5 receptors in native preparations; endogenous in cells; host or cells: primary cortical astrocytes from Sprague-Dawley rat embryos (day 16 to 19)
T2 sequence (P31424 21-1203): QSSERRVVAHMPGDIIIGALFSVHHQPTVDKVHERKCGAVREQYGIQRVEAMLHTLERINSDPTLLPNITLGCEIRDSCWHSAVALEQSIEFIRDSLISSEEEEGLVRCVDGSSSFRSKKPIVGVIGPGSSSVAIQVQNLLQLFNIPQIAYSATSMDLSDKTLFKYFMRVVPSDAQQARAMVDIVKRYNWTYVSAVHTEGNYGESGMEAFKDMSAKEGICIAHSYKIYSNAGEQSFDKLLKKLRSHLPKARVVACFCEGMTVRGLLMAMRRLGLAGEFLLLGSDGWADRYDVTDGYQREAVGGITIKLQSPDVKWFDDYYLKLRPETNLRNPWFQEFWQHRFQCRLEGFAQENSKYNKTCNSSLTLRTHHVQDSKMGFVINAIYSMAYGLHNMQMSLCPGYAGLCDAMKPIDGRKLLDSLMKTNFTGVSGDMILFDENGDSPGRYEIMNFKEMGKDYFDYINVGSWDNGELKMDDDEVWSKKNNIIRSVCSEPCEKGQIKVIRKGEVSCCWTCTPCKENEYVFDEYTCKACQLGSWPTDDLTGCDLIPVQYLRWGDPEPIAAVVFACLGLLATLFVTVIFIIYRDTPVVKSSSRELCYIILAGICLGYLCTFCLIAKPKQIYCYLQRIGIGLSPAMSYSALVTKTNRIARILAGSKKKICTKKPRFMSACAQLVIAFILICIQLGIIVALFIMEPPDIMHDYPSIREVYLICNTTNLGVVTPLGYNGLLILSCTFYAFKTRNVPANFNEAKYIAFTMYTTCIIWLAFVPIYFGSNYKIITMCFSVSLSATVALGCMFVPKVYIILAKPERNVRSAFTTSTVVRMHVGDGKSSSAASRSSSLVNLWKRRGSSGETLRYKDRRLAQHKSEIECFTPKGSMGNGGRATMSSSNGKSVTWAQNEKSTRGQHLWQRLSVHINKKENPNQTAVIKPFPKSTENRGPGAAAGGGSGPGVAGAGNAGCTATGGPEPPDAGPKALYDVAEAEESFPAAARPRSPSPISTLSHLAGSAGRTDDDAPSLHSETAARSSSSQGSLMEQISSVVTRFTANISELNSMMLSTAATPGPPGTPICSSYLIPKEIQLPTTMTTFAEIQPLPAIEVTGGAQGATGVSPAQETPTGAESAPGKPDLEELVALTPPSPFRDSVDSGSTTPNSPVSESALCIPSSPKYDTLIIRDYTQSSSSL

| Structure (SMILES) | EC50 [2] | melting point | further results |
| --- | --- | --- | --- |
| Fc1cccc(/C=N/N=C/c2cccc(F)c2)c1 [DFB, reference compound] | – | – | activity in rat cortical astrocytes culture in the absence of added glutamate [3]: inactive; activation of rat mGluR5 receptors in HEK-rat mGluR5 cell line [2]: activating |
| N#Cc1cccc(C(=O)Nc2cc(-c3ccccc3)nn2-c2ccccc2)c1 [CDPPB, reference compound] | – | – | activity in rat cortical astrocytes culture in the absence of added glutamate [3]: inactive; activation of rat mGluR5 receptors in HEK-rat mGluR5 cell line [2]: activating |
| O=C(c1ccc(F)cc1)N1CCCC1Cc1nc(-c2ccc(F)cc2)no1 (stereo not drawn) [Example 2, (4-Fluoro-phenyl)-{2-[3-(4-fluoro-phenyl)-[1,2,4]oxadiazol-5-ylmethyl]-pyrrolidin-1-yl}-methanone] | 1 to 10 µM | 158 to 162 °C | – |
| O=C(Nc1ccc(Cl)cc1CN1C(=O)c2ccccc2C1=O)c1ccccc1O [CPPHA, reference compound] | – | – | activity in rat cortical astrocytes culture in the absence of added glutamate [3]: inactive; activation of rat mGluR5 receptors in HEK-rat mGluR5 cell line [2]: activating |
| O=C(C1CCCCC1)N1CCC[C@H](c2nc(-c3ccc(F)cc3)no2)C1 [Example 10, Cyclohexyl-{(S)-3-[3-(4-fluoro-phenyl)-[1,2,4]oxadiazol-5-yl]-piperidin-1-yl}-methanone] | 1 to 10 µM | 80 to 85 °C | – |
| Cc1cc(C(=O)N2CCC[C@H](c3nc(-c4ccc(F)cc4)no3)C2)c(C)n1C [Example 17, {(S)-3-[3-(4-Fluoro-phenyl)-[1,2,4]oxadiazol-5-yl]-piperidin-1-yl}-(1,2,5-trimethyl-1H-pyrrol-3-yl)-methanone] | 1 to 10 µM | 122 to 126 °C | – |
| O=C(c1ccc(F)c(F)c1)N1CCC[C@H](c2nc(-c3cscn3)no2)C1 [Example 51, (3,4-Difluoro-phenyl)-[(S)-3-(3-thiazol-4-yl-[1,2,4]oxadiazol-5-yl)-piperidin-1-yl]-methanone] | 1 to 10 µM | 107 to 109 °C | – |
| O=C(c1ccccc1)c1cccc(C(=O)N2CCC[C@H](c3nc(-c4ccc(F)cc4)no3)C2)c1 [Example 11, (3-Benzoyl-phenyl)-{(S)-3-[3-(4-fluoro-phenyl)-[1,2,4]oxadiazol-5-yl]-piperidin-1-yl}-methanone] | 1 to 10 µM | 158 to 163 °C | – |
| Cc1c[nH]cc1C(=O)N1CCC[C@H](c2nc(-c3ccc(F)cc3)no2)C1 [Example 43, {(S)-3-[3-(4-Fluoro-phenyl)-[1,2,4]oxadiazol-5-yl]-piperidin-1-yl}-(4-methyl-1H-pyrrol-3-yl)-methanone] | 1 to 10 µM | 167.5 to 168.9 °C | – |
| O=C(C1CCSCC1)N1CCC[C@H](c2nc(-c3ccc(F)cc3)no2)C1 [Example 7, {(S)-3-[3-(4-Fluoro-phenyl)-[1,2,4]oxadiazol-5-yl]-piperidin-1-yl}-(tetrahydro-thiopyran-4-yl)-methanone] | 1 to 10 µM | 139 to 141 °C | – |
| N#Cc1cc(C(=O)N2CCC[C@H](c3nc(-c4ccc(F)cc4)no3)C2)ccc1F [Example 3, 2-Fluoro-5-{(S)-3-[3-(4-fluoro-phenyl)-[1,2,4]oxadiazol-5-yl]-piperidine-1-carbonyl}-benzonitrile] | 1 to 10 µM | 144 to 146 °C | – |
| O=C(c1ccc(F)cc1)N1CCC[C@H](c2nc(-c3cscn3)no2)C1 [Example 50, (4-Fluoro-phenyl)-[(S)-3-(3-thiazol-4-yl-[1,2,4]oxadiazol-5-yl)-piperidin-1-yl]-methanone] | 1 to 10 µM | 118 to 120 °C | – |

The next lines start with results.

| EC50 [2] | melting point | Structure (SMILES) | further results |
| --- | --- | --- | --- |
| < 1 µM | – | Cc1oncc1C(=O)N1CCC[C@H](c2nc(-c3ccc(F)cc3)no2)C1 [Example 5, (S)-{3-[3-(4-Fluoro-phenyl)-[1,2,4]oxadiazol-5-yl]-piperidin-1-yl}-(5-methyl-isoxazol-4-yl)-methanone] | increase in locomotor activity induced by amphetamine ([1]; listed as compound # 5): significantly attenuated; increase in locomotor activity induced by amphetamine ([1]; listed as example 5): significantly attenuate |
| < 1 µM | 135 to 137 °C | O=C(c1ccc(F)c(F)c1)N1CCC[C@H](c2nc(-c3ccccn3)no2)C1 [Example 54, (3,4-Difluoro-phenyl)-[(S)-3-(3-pyridin-2-yl-[1,2,4]oxadiazol-5-yl)-piperidin-1-yl]-methanone] | – |
| < 1 µM | 102 to 106 °C | O=C(c1ccc(F)c(F)c1)N1CCC[C@H](c2nc(-c3ccncc3)no2)C1 [Example 52, (3,4-Difluoro-phenyl)-[(S)-3-(3-pyridin-4-yl-[1,2,4]oxadiazol-5-yl)-piperidin-1-yl]-methanone] | – |
| 1 to 10 µM | 115 to 116 °C | Cc1ncccc1C(=O)N1CCC[C@H](c2nc(-c3ccc(F)cc3)no2)C1 [Example 16, {(S)-3-[3-(4-Fluoro-phenyl)-[1,2,4]oxadiazol-5-yl]-piperidin-1-yl}-(2-methyl-pyridin-3-yl)-methanone] | – |
| < 1 µM | 114 to 118 °C | Cc1cc(C(=O)N2CCC[C@H](c3nc(-c4ccc(F)cc4)no3)C2)c(C)o1 [Example 23, (2,5-Dimethyl-furan-3-yl)-{(S)-3-[3-(4-fluoro-phenyl)-[1,2,4]oxadiazol-5-yl]-piperidin-1-yl}-methanone] | – |
| < 1 µM | 92 to 97 °C | O=C(c1ccc(F)c(F)c1)N1CCC[C@H](c2nc(-c3ccsc3)no2)C1 [Example 45, (3,4-Difluoro-phenyl)-[(S)-3-(3-thiophen-3-yl-[1,2,4]oxadiazol-5-yl)-piperidin-1-yl]-methanone] | – |
| < 1 µM | 93 to 95 °C | O=C(c1ccnc(F)c1)N1CCC[C@H](c2nc(-c3ccc(F)cc3)no2)C1 [Example 77, {(S)-3-[3-(4-Fluoro-phenyl)-[1,2,4]oxadiazol-5-yl]-piperidin-1-yl}-(2-fluoro-pyridin-4-yl)-methanone] | – |
